Measured values reported in the NIST ThermoML archive (doi:10.1016/j.fluid.2010.10.028).

Assay: xn = mol fraction of the nth substance listed
Details: Liquid, Vibrating tube method

CC(C)=O [acetone] + CCCCCCC
Details | mass density [kg/m3]
417.19 K, 24970 kPa, x1 = 0.4 | 667.12
417.19 K, 24970 kPa, x1 = 0.8992 | 667.12
417.19 K, 29860 kPa, x1 = 0.801 | 662.11
417.19 K, 29960 kPa, x1 = 0.4 | 675.37
417.19 K, 29960 kPa, x1 = 0.8992 | 675.37
417.19 K, 34850 kPa, x1 = 0.801 | 669.57
417.19 K, 34950 kPa, x1 = 0.4 | 682.9
417.19 K, 34950 kPa, x1 = 0.8992 | 682.9
417.19 K, 39860 kPa, x1 = 0.801 | 676.46
417.19 K, 39930 kPa, x1 = 0.4 | 689.8
417.19 K, 39930 kPa, x1 = 0.8992 | 689.8
417.19 K, 44860 kPa, x1 = 0.801 | 682.8
417.19 K, 44890 kPa, x1 = 0.7024 | 672.51
417.19 K, 49870 kPa, x1 = 0.801 | 688.76
417.19 K, 49890 kPa, x1 = 0.4 | 702.22
417.19 K, 49890 kPa, x1 = 0.7024 | 678.35
417.19 K, 49890 kPa, x1 = 0.8992 | 702.22
417.19 K, 54860 kPa, x1 = 0.801 | 694.3
417.19 K, 54870 kPa, x1 = 0.4 | 707.85
417.19 K, 54870 kPa, x1 = 0.8992 | 707.85
417.19 K, 54880 kPa, x1 = 0.7024 | 683.78
417.19 K, 59860 kPa, x1 = 0.7024 | 688.95
417.19 K, 59870 kPa, x1 = 0.801 | 699.57
417.19 K, 64830 kPa, x1 = 0.801 | 704.51
417.19 K, 69830 kPa, x1 = 0.801 | 709.22
417.19 K, 74920 kPa, x1 = 0.801 | 713.82
417.19 K, 79790 kPa, x1 = 0.7024 | 707.06
417.19 K, 79800 kPa, x1 = 0.4 | 732.02
417.19 K, 79800 kPa, x1 = 0.8992 | 732.02
417.19 K, 79910 kPa, x1 = 0.801 | 718.11
417.19 K, 84890 kPa, x1 = 0.801 | 722.24
417.19 K, 89750 kPa, x1 = 0.4 | 740.27
417.19 K, 89750 kPa, x1 = 0.8992 | 740.27
417.19 K, 94870 kPa, x1 = 0.801 | 730.03
417.19 K, 104800 kPa, x1 = 0.801 | 737.2
417.19 K, 114770 kPa, x1 = 0.801 | 743.97
417.19 K, 119800 kPa, x1 = 0.7024 | 735.65
417.19 K, 119830 kPa, x1 = 0.801 | 747.24
417.19 K, 124820 kPa, x1 = 0.7024 | 738.72
417.19 K, 124830 kPa, x1 = 0.801 | 750.39
417.19 K, 129810 kPa, x1 = 0.7024 | 741.7
417.19 K, 129840 kPa, x1 = 0.801 | 753.43
417.2 K, 1810 kPa, x1 = 0.7024 | 587.77
417.2 K, 4810 kPa, x1 = 0.7024 | 598.33
417.2 K, 9830 kPa, x1 = 0.7024 | 612.79
417.2 K, 14820 kPa, x1 = 0.7024 | 624.66
417.2 K, 19830 kPa, x1 = 0.7024 | 634.93
417.2 K, 24810 kPa, x1 = 0.7024 | 643.93
417.2 K, 29810 kPa, x1 = 0.7024 | 652.02
417.2 K, 34810 kPa, x1 = 0.7024 | 659.38
417.2 K, 39820 kPa, x1 = 0.7024 | 666.17
417.2 K, 44910 kPa, x1 = 0.4 | 696.21
417.2 K, 44910 kPa, x1 = 0.8992 | 696.21
417.2 K, 59870 kPa, x1 = 0.4 | 713.19
417.2 K, 59870 kPa, x1 = 0.8992 | 713.19
417.2 K, 64850 kPa, x1 = 0.4 | 718.24
417.2 K, 64850 kPa, x1 = 0.7024 | 693.8
417.2 K, 64850 kPa, x1 = 0.8992 | 718.24
417.2 K, 69820 kPa, x1 = 0.4 | 723.05
417.2 K, 69820 kPa, x1 = 0.8992 | 723.05
417.2 K, 69830 kPa, x1 = 0.7024 | 698.42
417.2 K, 74810 kPa, x1 = 0.4 | 727.63
417.2 K, 74810 kPa, x1 = 0.8992 | 727.63
417.2 K, 74820 kPa, x1 = 0.7024 | 702.83
417.2 K, 84780 kPa, x1 = 0.4 | 736.22
417.2 K, 84780 kPa, x1 = 0.7024 | 711.1
417.2 K, 84780 kPa, x1 = 0.8992 | 736.22
417.2 K, 89760 kPa, x1 = 0.7024 | 714.98
417.2 K, 89890 kPa, x1 = 0.801 | 726.21
417.2 K, 94720 kPa, x1 = 0.4 | 744.15
417.2 K, 94720 kPa, x1 = 0.8992 | 744.15
417.2 K, 94740 kPa, x1 = 0.7024 | 718.71
417.2 K, 99690 kPa, x1 = 0.4 | 747.91
417.2 K, 99690 kPa, x1 = 0.8992 | 747.91
417.2 K, 99840 kPa, x1 = 0.7024 | 722.39
417.2 K, 99840 kPa, x1 = 0.801 | 733.67
417.2 K, 104650 kPa, x1 = 0.4 | 751.51
417.2 K, 104650 kPa, x1 = 0.8992 | 751.51
417.2 K, 104810 kPa, x1 = 0.7024 | 725.87
417.2 K, 109620 kPa, x1 = 0.4 | 755.03
417.2 K, 109620 kPa, x1 = 0.8992 | 755.03
417.2 K, 109800 kPa, x1 = 0.801 | 740.64
417.2 K, 109810 kPa, x1 = 0.7024 | 729.22
417.2 K, 114590 kPa, x1 = 0.4 | 758.45
417.2 K, 114590 kPa, x1 = 0.8992 | 758.45
417.2 K, 114820 kPa, x1 = 0.7024 | 732.49
417.2 K, 119550 kPa, x1 = 0.4 | 761.72
417.2 K, 119550 kPa, x1 = 0.8992 | 761.72
417.2 K, 124810 kPa, x1 = 0.4 | 765.12
417.2 K, 124810 kPa, x1 = 0.8992 | 765.12
417.2 K, 129820 kPa, x1 = 0.4 | 768.24
417.2 K, 129820 kPa, x1 = 0.8992 | 768.24
